Measured values as given in patent US20070238742A1, “METHODS OF PREPARATION AND RESOLUTION OF E/Z ISOMERS OF VINYLFURO[2,3-D]PYRIMIDINE AND THEIR BIOLOGICAL ACTIVITIES AND RELATED COMPOSITIONS AND METHODS OF TREATMENT” (priority 2006, published 2007).

Test system: chick aorta
Assay: aortic ring assay: chick aorta pieces in culture with angiogenic agents
Assay type: cell-based
Conditions: for resumption of angiogenesis / regrowth of capillary-like structures on removal: after removal of the agent, relative to tissue not treated with antiangiogenic agents (control); for inhibition of angiogenesis compared with the E/Z mixture: E-isomer vs E/Z mixture 5
Method: Biological activity in angiogenic assays were chosen as a way to compare anti-angiogenic activity, potency an reversibility of inhibition. The studies were conducted on pieces of chick aorta placed in culture with a mixture of angiogenic agents and various compounds.
Unresolved mixture of E/Z-isomers 5 and isolated E-isomer 1 from the series of compounds under study were assessed for desirable biological activities, i.e., antiangiogenic activity and persistence of inhibitory activity. It is well known that binding vascular endothelial growth factor with antibodies or aptamers or inhibiting VEGF signaling with small molecules reduces and even reverses angiogenesis. However, angiogenesis rapidly resumes once the agent is removed (Mancuso et al., J. Clin. Invest., 116:610-21, 2006; Baffert et al., Am. J. Physiol. Heart, 290:H509-11, 2006). In the case of tumors, rapid regrowth of new vessels contributes to the regrowth and survival of the tumor.

Row | Structure (SMILES) | resumption of angiogenesis / regrowth of capillary-like structures on removal | inhibition of angiogenesis compared with the E/Z mixture (comparison in words) | inhibition of angiogenesis compared with the E/Z mixture (comparison in words, listed as E-isomer) | resumption of angiogenesis compared with the E/Z parent compound (comparison in words, after removal) | inhibition of capillary outgrowth (aortic ring assay, compound present)
1 | Nc1nc(N)c2c(/C=C/c3ccc4ccccc4c3)coc2n1 (single isomer, unassigned; isomer 1) [E-isomer 1, 5-E-(2-naphthalen-2-yl-vinyl)-furo[2,3-d]pyrimidine-2,4-diamine] | 31% | comparable inhibition of angiogenesis | greater inhibition on a molar basis | less resumption of angiogenesis | 
2 | Nc1nc(N)c2c(C=Cc3ccc4ccccc4c3)coc2n1 [E/Z mixture 5, 5-Z/E-(2-naphthalen-2-yl-vinyl)-furo[2,3-d]pyrimidine-2,4-diamine] | ~72% |  |  |  | 84%
